US20140314791A1, “METHODS OF TREATING CANCER” (DANA-FARBER CANCER INSTITUTE, INC., priority 2012, published 2014)

Experiments:
[1] = system: Lkb1-null versus Lkb1-wt cell lines; assay: Large-scale pooled shRNA library screening (murine 40K pool); format: cell-based, mouse
[2] = system: Lkb1-wt (634, 855, and 857) and Lkb1-null (t2, t4, and t5) cells; assay: Proliferation assay of shRNA-transduced cells (CellTiter-Glo); format: cell-based, mouse; settings: in vitro, puromycin 3 μg/ml
Procedure: Viable cells were measured daily using Promega's CellTiter-Glo Assay. Two independent sets of transductions into the 6 cell lines were shown: the first set used shGFP, shDtymk-1, and shChek1-4 (upper panels), and the second set used shGFP, shDtymk-3, and shChek1-1 (lower panels).
Lentiviral production and target cell transduction were performed according to previously description (Moffat et al., 2006). Briefly, 293T cells were co-transfected with pLenti-vector, pCMV-dR8.74psPAX2, and pMD2.G using TransIT-LT1 transfection reagent (Mirus). Thirty-six h after transfection, the supernatant was harvested and spun at 3000 rpm/4° C. for 10 min, and then incubated with target cells in the presence of 8 μg/ml polybrene (Sigma) for 24 h. Two days after infection, the cells were collected for further analysis as indicated in the presence of 3 μg/ml Puromycin (Invitrogen).
Cells were plated into 96-well plates at 2000 cells per well in 100 μl, with addition of puromycin at 3 μg/ml for shRNA lentivirus infected cells, or with addition of variable doses of drug for drug treatment effects. Viable cells were measured daily or for a period of up to 3 days either by CellTiter-Glo Luminescent Cell Viability Assay (Promega) or by Cell Counting Kit-8 (CCK-8) (Dojindo) according to the manufacturer's instructions. All proliferation assays were performed in triplicate wells.
Depletion of DTYMK and CHEK1 was confirmed by Western blot (FIG. 11B).

[3] = system: Lkb1-null t2, t4, and t5 cells; assay: dTTP rescue of shDtymk growth phenotype; format: cell-based, mouse; settings: without additional dTTP, 3 days
Procedure: (B) Morphology of Lkb1-null t2, t4, and t5 cells transduced with shGFP or shDtymk-1 and then cultured with or without additional 150 μM dTTP in medium for 3 days.
Next it was determined whether adding dTTP to the media could rescue cell death after Dtymk knockdown. Three Lkb1-null cell lines were transduced with shGFP or shDtymk-1 and then selectively cultured in puromycin medium in the presence or absence of 150 μM dTTP for 3 days (Taricani et al., 2010). […] Expression of DTYMK in the shDtymk-1 cells was not determined because the remaining cells were too few for RNA and protein extraction (FIG. 4B).

Dtymk = assay: QPCR analysis of Dtymk knockdown in Lkb1-wt 634 cells; settings: normalized to shGFP

With “shDtymk-1: shRNA hairpin CAAGCTTCTGAATTCCTACTT targeting Mouse Dtymk” the “Hairpin-rank in pooled shRNA screen” value ([1]; Table 6) was 27050, the NES ([1]; gene-level normalized enrichment score over all hairpins of the gene) was 1.540 and the Gene rank ([1]; gene-level rank by NES) was 91. For the same substance, the “# HP 500” value ([1]; number of the gene's hairpins ranked within top 500) was 1, the “# HP 1000” value ([1]; number of the gene's hairpins ranked within top 1000) was 1 and the “# HP 5000” value ([1]; number of the gene's hairpins ranked within top 5000) was 1. For the same substance, the “# HP 10000” value ([1]; number of the gene's hairpins ranked within top 10000) was 2, the “cell growth compared to shGFP control, Lkb1-null versus Lkb1-wt” value [2] was “inhibition was stronger in Lkb1-null cells” and the “growth of shDtymk-transduced Lkb1-null cells” value [3] was “grew poorly”. The “mRNA remaining (by qPCR)” value (Dtymk) was 20.00%.
